One test concerns the target PI3K isoform δ (Homo sapiens (Human), UniProt O00329). The test is described as follows: TR-FRET assay of enzymatic activity of class I PI3K isoforms.
Conditions: not given
PI3K isoform δ, sequence (O00329 whole entry, canonical isoform): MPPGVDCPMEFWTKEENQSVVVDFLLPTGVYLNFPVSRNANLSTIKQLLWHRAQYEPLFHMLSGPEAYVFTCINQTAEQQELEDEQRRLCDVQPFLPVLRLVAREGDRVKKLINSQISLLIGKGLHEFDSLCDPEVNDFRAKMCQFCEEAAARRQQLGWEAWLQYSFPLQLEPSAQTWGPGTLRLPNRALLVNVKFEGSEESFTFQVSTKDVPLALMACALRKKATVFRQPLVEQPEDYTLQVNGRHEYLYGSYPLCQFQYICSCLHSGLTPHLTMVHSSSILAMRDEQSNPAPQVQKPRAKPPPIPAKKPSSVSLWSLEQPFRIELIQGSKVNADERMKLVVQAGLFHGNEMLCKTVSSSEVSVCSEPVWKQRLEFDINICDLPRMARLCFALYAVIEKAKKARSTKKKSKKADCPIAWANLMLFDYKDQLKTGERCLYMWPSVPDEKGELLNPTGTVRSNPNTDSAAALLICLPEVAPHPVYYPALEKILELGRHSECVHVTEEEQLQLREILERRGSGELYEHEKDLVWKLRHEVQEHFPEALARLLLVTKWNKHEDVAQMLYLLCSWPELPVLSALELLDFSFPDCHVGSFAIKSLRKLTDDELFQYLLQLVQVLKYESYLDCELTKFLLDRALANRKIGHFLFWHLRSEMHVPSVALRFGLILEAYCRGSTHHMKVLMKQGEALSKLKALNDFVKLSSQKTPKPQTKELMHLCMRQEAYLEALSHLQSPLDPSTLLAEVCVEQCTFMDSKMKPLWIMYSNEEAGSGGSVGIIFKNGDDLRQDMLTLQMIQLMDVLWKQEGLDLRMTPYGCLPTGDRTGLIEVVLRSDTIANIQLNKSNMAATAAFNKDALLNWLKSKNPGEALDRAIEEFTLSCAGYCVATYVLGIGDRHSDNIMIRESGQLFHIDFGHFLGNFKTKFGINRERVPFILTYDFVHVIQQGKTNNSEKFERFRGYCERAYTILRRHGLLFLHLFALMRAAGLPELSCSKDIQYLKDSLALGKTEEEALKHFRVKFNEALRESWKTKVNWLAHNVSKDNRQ
PI3K isoform δ, sequence (P27986 whole entry partner, canonical isoform): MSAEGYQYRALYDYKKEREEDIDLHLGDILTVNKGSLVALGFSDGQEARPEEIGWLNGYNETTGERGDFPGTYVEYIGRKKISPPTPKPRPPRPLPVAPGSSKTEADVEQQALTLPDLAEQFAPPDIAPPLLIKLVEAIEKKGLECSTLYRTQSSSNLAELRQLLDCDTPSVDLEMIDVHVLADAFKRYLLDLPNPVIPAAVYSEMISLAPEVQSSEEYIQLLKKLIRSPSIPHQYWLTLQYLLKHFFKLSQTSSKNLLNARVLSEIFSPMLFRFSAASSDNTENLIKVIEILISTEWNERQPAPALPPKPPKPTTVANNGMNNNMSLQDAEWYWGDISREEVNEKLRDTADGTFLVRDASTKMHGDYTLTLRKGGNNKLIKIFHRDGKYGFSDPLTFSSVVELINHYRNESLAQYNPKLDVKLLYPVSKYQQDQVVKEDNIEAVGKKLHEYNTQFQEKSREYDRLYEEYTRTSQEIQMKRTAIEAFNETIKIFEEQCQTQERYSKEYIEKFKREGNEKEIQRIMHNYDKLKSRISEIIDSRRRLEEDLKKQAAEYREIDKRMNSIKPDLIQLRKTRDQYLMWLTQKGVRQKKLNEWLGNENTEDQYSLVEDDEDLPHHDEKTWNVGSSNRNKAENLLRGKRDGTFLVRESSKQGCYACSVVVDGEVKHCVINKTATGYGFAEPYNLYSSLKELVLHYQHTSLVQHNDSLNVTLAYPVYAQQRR
With `N#Cc1c(N)nc(N)nc1N1CCC[C@H]1c1nc2cccc(S(=O)(=O)c3ccccc3)c2c(=O)n1-c1cccc(F)c1` [Compound 77], the 50% inhibitory concentration (IC50) was 2 nM.

Staying with this test, now noted: IC50 (nM) for PI3K isoform δ (Table 3), TR-FRET; 2× Km ATP, 2 μM PIP2; incubated for 30 minutes at 25° C.
`C[C@H](Nc1nc(N)nc(N)c1C#N)c1nc2cccc(OCCN(C)C)c2c(=O)n1-c1ccccc1` [Compound 27] registered an IC50 of 57 nM.

The same test, now with this note: read-out: IC50 (nM) for PI3K isoform δ (Table 2); TR-FRET; 2× Km ATP, 2 μM PIP2; incubated for 30 minutes at 25° C.
As for `N#Cc1c(N)nc(N)nc1N[C@H](c1nc2c(F)ccc(C#N)c2c(=O)n1-c1ccccc1)C1CC1` [Compound 2a, (S)-2-(cyclopropyl((2,6-diamino-5-cyanopyrimidin-4-yl)amino)methyl)-8-fluoro-4-oxo-3-phenyl-3,4-dihydroquinazoline-5-carbonitrile], the IC50 was determined as 10 nM.

Take `N#Cc1c(N)nc(N)nc1N[C@H](c1nc2ccc(F)c(C#N)c2c(=O)n1-c1cccc(F)c1)C1CC1` [Compound 7a, (S)-2-(cyclopropyl((2,6-diamino-5-cyanopyrimidin-4-yl)amino)methyl)-6-fluoro-3-(3-fluorophenyl)-4-oxo-3,4-dihydroquinazoline-5-carbonitrile]: the IC50 stood at 6 nM.

`N#Cc1c(N)nc(N)nc1N[C@H](c1nc2cccc(C#N)c2c(=O)n1-c1cc(F)cc(C(F)F)c1)C1CC1` [Compound 4a]: the IC50 is 49 nM.

With `N#Cc1c(N)nc(N)nc1N[C@@H](c1ccccc1)c1nc2cccc(Cl)c2c(=O)n1-c1ccccc1` [Compound 3a, (S)-2,4-diamino-6-(((5-chloro-4-oxo-3-phenyl-3,4-dihydroquinazoline-2-yl)(phenyl)methyl)amino)pyrimidine-5-carbonitrile], the half-inhibitory concentration (IC50) came to 0.3 nM.

The test is the same for the next values; noted with them: read-out: IC50 (nM) for PI3K isoform δ (Table 3); TR-FRET; 2× Km ATP, 2 μM PIP2; incubated for 30 minutes at 25° C.
In the case of `N#Cc1c(N)nc(N)nc1N1CCC[C@H]1c1nc2c(C#N)cccc2c(=O)n1-c1cccc(C(F)F)c1` [Compound 90, (S)-2-(1-(2,6-diamino-5-cyanopyrimidin-4-yl)pyrrolidin-2-yl)-3-(3-(difluoromethyl)phenyl)-4-oxo-3,4-dihydroquinazoline-8-carbonitrile], the half-inhibitory concentration (IC50) amounted to 5 nM.

In the case of “N-((3R,5S)-5-(5-chloro-3-(3-(difluorophenyl)-5-fluorophenyl)-4-oxo-3,4-dihydroquinazolin-2-yl)-1-(2,6-diamino-5-cyanopyrimidin-4-yl)pyrrolidin-3-yl)-2,2-difluoroacetamide [Compound 110]”, the IC50 was determined as 2 nM.

Consider `C[C@H](Nc1nc(N)nc(N)c1C#N)c1nc2cccc(CCCN3CC(F)(F)OC(F)(F)C3)c2c(=O)n1-c1ccccc1` [Compound 54, (S)-2,4-diamino-6-((1-(4-oxo-3-phenyl-5-(3-(2,2,6,6-tetrafluoromorpholino)propyl)-3,4-dihydroquinazolin-2-yl)ethyl)amino)pyrimidine-5-carbonitrile], for which the 50% inhibitory concentration (IC50) turned out to be 0.5 nM.

With `C[C@H](Nc1nc(N)nc(N)c1Cl)c1nc2cccc(CCC(N)=O)c2c(=O)n1-c1cc(F)cc(F)c1` [Compound 42, (S)-3-(2-(1-((2,6-diamino-5-chloropyrimidin-4-yl)amino)ethyl)-3-(3,5-difluorophenyl)-4-oxo-3,4-dihydroquinazoline-5-yl)propanamide], the IC50 worked out at 20 nM.

`N#Cc1c(N)nc(N)nc1N1C[C@H](NC(=O)C(F)F)C[C@H]1c1nc2cccc(Cl)c2c(=O)n1-c1ccccc1` [Compound 107, N-((3R,5S)-5-(5-chloro-4-oxo-3-phenyl-3,4-dihydroquinazolin-2-yl)-1-(2,6-diamino-5-cyanopyrimidin-4-yl)pyrrolidin-3-yl)-2,2-difluoroacetamide]: the IC50 turned out to be 0.4 nM.

For the compound `C[C@H](Nc1nc(N)nc(N)c1C#N)c1nc2cccc(OCC(C)(CO)CO)c2c(=O)n1-c1ccccc1` [Compound 29, (S)-2,4-diamino-6-((1-(5-(3-hydroxy-2-(hydroxymethyl)-2-methylpropoxy)-4-oxo-3-phenyl-3,4-dihydroquinazolin-2-yl)ethyl)amino)pyrimidine-5-carbonitrile], the concentration for half-maximal inhibition (IC50) was 220 nM.

`CS(=O)(=O)c1cccc2nc([C@@H]3CCCN3c3nc(N)nc(N)c3C#N)n(-c3cccc(F)c3)c(=O)c12` [Compound 72, (S)-2,4-diamino-6-(2-(3-(3-fluorophenyl)-5-(methylsulfonyl)-4-oxo-3,4-dihydroquinazolin-2-yl)pyrrolidin-1-yl)pyrimidine-5-carbonitrile]: the 50% inhibitory concentration (IC50) amounted to 4 nM.

Regarding `N#Cc1c(N)nc(N)nc1N1CC[C@H]1c1nc2cccc(Cl)c2c(=O)n1-c1cc(F)cc(F)c1` [Compound 67, (S)-2,4-diamino-6-(2-(5-chloro-3-(3,5-difluorophenyl)-4-oxo-3,4-dihydroquinazolin-2-yl)azetidin-1-yl)pyrimidine-5-carbonitrile], the IC50 was 110 nM.

`C[C@H](Nc1nc(N)nc(N)c1C#N)c1nc2cccc(OCCC3CCCN3C)c2c(=O)n1-c1ccccc1` (stereo partly drawn) [Compound 33, 2,4-diamino-6-(((1S)-1-(5-(2-(1-methylpyrrolidin-2-yl)ethoxy)-4-oxo-3-phenyl-3,4-dihydroquinazolin-2-yl)ethyl)amino)pyrimidine-5-carbonitrile]: the IC50 came out at 24 nM.

For `N#Cc1c(N)nc(N)nc1N1CCC[C@H]1c1nc2cccc(F)c2c(=O)n1-c1cc(F)cc(F)c1` [Compound 87, (S)-2,4-diamino-6-(2-(3-(3,5-difluorophenyl)-5-fluoro-4-oxo-3,4-dihydroquinazolin-2-yl)pyrrolidin-1-yl)pyrimidine-5-carbonitrile], the IC50 stood at 23 nM.

Regarding `CC1CCN(C(=O)COc2cccc3nc([C@H](C)Nc4nc(N)nc(N)c4C#N)n(-c4ccccc4)c(=O)c23)CC1` [Compound 36, (S)-2,4-diamino-6-((1-(5-(2-(4-methylpiperidin-1-yl)-2-oxoethoxy)-4-oxo-3-phenyl-3,4-dihydroquinazolin-2-yl)ethyl)amino)pyrimidine-5-carbonitrile], the half-inhibitory concentration (IC50) came out at 2 nM.

In the case of `N#Cc1c(N)nc(N)nc1N[C@H](c1nc2cccc(CCCN3CCCCC3)c2c(=O)n1-c1ccccc1)C1CC1` [Compound 57, (S)-2,4-diamino-6-((cyclopropyl(4-oxo-3-phenyl-5-(3-(piperidin-1-yl)propyl)-3,4-dihydroquinazolin-2-yl)methyl)amino)pyrimidine-5-carbonitrile], the 50% inhibitory concentration (IC50) amounted to 1.4 nM.

As for `C[C@H](Nc1nc(N)nc(N)c1C#N)c1nc2cccc(S(=O)(=O)c3ccccc3)c2c(=O)n1-c1cccc(F)c1` [Compound 76, (S)-2,4-diamino-6-((1-(3-(3-fluorophenyl)-4-oxo-5-(phenylsulfonyl)-3,4-dihydroquinazolin-2-yl)ethyl)amino)pyrimidine-5-carbonitrile], the 50% inhibitory concentration (IC50) came to 1.3 nM.

On to `CC(Cc1cccc2nc([C@H](C)Nc3nc(N)nc(N)c3C#N)n(-c3ccccc3)c(=O)c12)N1CCCC1` (stereo partly drawn) [Compound 45, (S)-2,4-diamino-6-((1-(4-oxo-3-phenyl-5-(2-(pyrrolidin-1-yl)propyl)-3,4-dihydroquinazolin-2-yl)ethyl)amino)pyrimidine-5-carbonitrile], for which the IC50 is 0.7 nM.

Take `N#Cc1c(N)nc(N)nc1N[C@H](c1nc2cccc(CCCN3CCCC3)c2c(=O)n1-c1ccccc1)C1CC1` [Compound 56, (S)-2,4-diamino-6-((cyclopropyl(4-oxo-3-phenyl-5-(3-(pyrrolidin-1-yl)propyl)-3,4-dihydroquinazolin-2-yl)methyl)amino)pyrimidine-5-carbonitrile]: the half-maximal inhibitory concentration (IC50) was determined as 3 nM.

As to `Cc1nc(N)nc(N[C@@H](C)c2nc3cccc(Cl)c3c(=O)n2-c2ccccc2)c1C#N` [Compound 96, (S)-2-amino-4-((1-(5-chloro-4-oxo-3-phenyl-3,4-dihydroquinazolin-2-yl)ethyl)amino)-6-methylpyrimidine-5-carbonitrile], the IC50 worked out at 0.1 nM.

Turning to `C[C@H](Nc1nc(N)nc(N)c1C#N)c1nc2cccc(SCCO)c2c(=O)n1-c1cccc(F)c1` [Compound 79, (S)-2,4-diamino-6-((1-(3-(3-fluorophenyl)-5-((2-hydroxyethyl)thio)-4-oxo-3,4-dihydroquinazolin-2-yl)ethyl)amino)pyrimidine-5-carbonitrile], the IC50 amounted to 51 nM.

For the compound `N#Cc1c(N)nc(N)nc1N1C[C@H](NC(=O)CN)C[C@H]1c1nc2cccc(Cl)c2c(=O)n1-c1cc(F)cc(F)c1` [Compound 116, 2-amino-N-((3R,5S)-5-(5-chloro-3-(3,5-difluorophenyl)-4-oxo-3,4-dihydroquinazolin-2-yl)-1-(2,6-diamino-5-cyanopyrimidin-4-yl)pyrrolidin-3-yl)acetamide], the half-inhibitory concentration (IC50) stood at 7 nM.

For the compound `Cc1nccn1CCOc1cccc2nc([C@H](C)Nc3nc(N)nc(N)c3C#N)n(-c3ccccc3)c(=O)c12` [Compound 32, (S)-2,4-diamino-6-((1-(5-(2-(2-methyl-1H-imidazol-1-yl)ethoxy)-4-oxo-3-phenyl-3,4-dihydroquinazolin-2-yl)ethyl)amino)pyrimidine-5-carbonitrile], the half-inhibitory concentration (IC50) was 85 nM.

In the case of `C[C@H](Nc1nc(N)nc(N)c1C#N)c1nc2cccc(CCCN3CCC(F)(F)CC3)c2c(=O)n1-c1ccccc1` [Compound 48, (S)-2,4-diamino-6-((1-(5-(3-(4,4-difluoropiperidin-1-yl)propyl)-4-oxo-3-phenyl-3,4-dihydroquinazolin-2-yl)ethyl)amino)pyrimidine-5-carbonitrile], the half-maximal inhibitory concentration (IC50) came out at 0.5 nM.

In the case of `C[C@H](Nc1nc(N)nc(N)c1C#N)c1nc2cccc(CCCN3CCCC3)c2c(=O)n1-c1cc(F)cc(F)c1` [Compound 51, (S)-2,4-diamino-6-((1-(3-(3,5-difluorophenyl)-4-oxo-5-(3-(pyrrolidin-1-yl)propyl)-3,4-dihydroquinazolin-2-yl)ethyl)amino)pyrimidine-5-carbonitrile], the half-maximal inhibitory concentration (IC50) turned out to be 3 nM.

Consider `C[C@H](Nc1nc(N)nc(N)c1C#N)c1nc2cccc(CCCN3CCC(F)(F)C3)c2c(=O)n1-c1ccccc1` [Compound 47, (S)-2,4-diamino-6-((1-(5-(3-(3,3-difluoropyrrolidin-1-yl)propyl)-4-oxo-3-phenyl-3,4-dihydroquinazolin-2-yl)ethyl)amino)pyrimidine-5-carbonitrile], for which the half-inhibitory concentration (IC50) was determined as 2 nM.
